The values below come from PubChem BioAssay (NCI).

Where “and” joins values, the source holds several entries; their conditions need not be identical. Equal values may be shown once.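 These data come from cells grown in 96-well plates and exposed to compound for 48 hours at five concentrations. At the GI50, growth is halved. The concentration for full growth arrest is given as TGI.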 A value given as a limit tells only on which side of the number the result lay.

Common to all, as to test: DTP human tumour cell line panel, 48 h
Test [1] deals with HCC-2998 colon.
The test system of test [2] is MCF7 breast.
In test [3] the test system is UO-31 renal.
In test [4] the test system is MDA-MB-435.
For test [5], the system named is NCI-H522 lung.
Test [6] has as its system SW-620 colon.
Test [7] relates to OVCAR-4 ovarian.
For test [8], the system named is A498 renal.
Test [9] deals with K-562 leukemia.
For test [10], the system named is LOX IMVI melanoma.

Turning to `CC(C(N)=O)N(C)C(=O)c1cnc2ccccc2c1` (stereo not given), the TGI in test [1], in [2], in test [3], in test [4], in test [5] and in test [6] was over 100 µM in each case. Besides, the concentration for total growth inhibition (TGI) in test [7], in test [8] and in [9] was over 100 µM throughout.
As to `Cn1cc(NC(=O)Nc2cc(C(=O)Nc3cc(C(=O)Nc4cc(S(=O)(=O)O)c5cc(S(=O)(=O)O)cc(S(=O)(=O)O)c5c4)n(C)c3)n(C)c2)cc1C(=O)Nc1cc(C(=O)Nc2cc(S(=O)(=O)O)c3cc(S(=O)(=O)O)cc(S(=O)(=O)O)c3c2)n(C)c1`, the TGI in test [1], in [2], in test [3], in test [4], in [5] and in test [6] was over 100 µM each time. Besides, the TGI in [7] and in [9] was over 100 µM throughout.
With `CCCOC(=O)C1C2CCC(O2)C1C(=O)O` (stereo not given), the TGI in test [2], in [10], in [3], in test [4], in test [5] and in test [6] was over 100 µM throughout. The TGI in [7], in [8] and in [9] was over 100 µM each time.
As to `O=C(/C=C/c1ccccc1)CCC1C(=O)NC(=S)NC1=O`, the TGI in test [1], in test [10], in test [3], in [4], in test [6] and in [8] was over 100 µM each time. In test [9], this compound had a concentration for total growth inhibition (TGI) of over 100 µM.
Consider `NS(=O)(=O)c1ccc(NC(=O)c2cccc(NC3=C(Cl)C(=O)N(Cc4ccccc4)C3=O)c2)cc1`, for which the GI50 was 3.61 µM in [2]; 3.54 µM in test [10]; 2.27 µM in test [3]; 8.63 µM in test [4]; 12.1 µM in test [5]; 6.1 µM in test [6]. The GI50 in test [7] is 35.7 µM; in test [8], 9.25 µM; in [9], 2.27 µM. For the same compound, the total growth inhibition concentration (TGI) in test [2] was found to be 14.6 µM; in [10], 16.1 µM; in [3], 6.4 µM; in test [4], 24.1 µM; in test [5], 30.9 µM; in test [6] it was 44.4 µM. The total growth inhibition concentration (TGI) in test [7] is over 100 µM; in test [8] it was 23.7 µM; in test [9], 6.09 µM.
As for `C/C(=N/O)c1ccc(Nc2cc(-n3ccnc3)c3ccccc3n2)cc1`, the GI50 in test [1] was 48 µM; in test [2], 85.3 µM; in test [3], 15.3 µM; in test [4] it was 36.4 µM; in test [5], 35.8 µM; in test [6], 41.8 µM. The GI50 in test [8] is 27.6 µM; in test [9] it was 3.27 µM. Further, the TGI in test [1], in [2], in [3], in [4], in test [5] and in [6] was over 100 µM each time. Also, the TGI is 94 µM in test [8] and over 100 µM in test [9].
Consider `O=C(c1ccc2ccccc2c1)c1c(C(F)(F)F)n([O-])c2ccc(F)cc2[n+]1=O`, for which the GI50 was 0.892 µM in [1]; 1.43 µM in [2]; 0.394 µM in test [10]; 1.5 µM in test [6]; 1.67 µM in [7]; 6.9 µM in [8]. In addition, the TGI in test [1] was determined as 2.12 µM; in test [2], 3.31 µM; in test [10], 1.66 µM; in test [6] it was 3.2 µM; in test [7], 3.22 µM; in test [8], 21 µM.
For the compound `Nc1c(C(=O)Nc2cccc3ccccc23)sc2nc3c(cc12)C(=O)CCC3`, the GI50 in test [1] is 0.3 µM; in test [2], 0.206 µM; in test [10], 0.554 µM; in test [3] it was 0.636 µM; in [5], 0.057 µM; in test [6] it was 0.222 µM. Also, the GI50 was 2.77 µM in [7], 0.0463 µM in test [8] and 0.131 µM in test [9]. Further, the total growth inhibition concentration (TGI) is over 100 µM in [2]; over 100 µM in [10]; over 95.6 µM in [3]; 1.02 µM in test [5]; over 100 µM in [6]; over 51.7 µM in [7]. Further, the TGI is 1.55 µM in test [8] and over 100 µM in test [9].
With H-QIYKKYRTWYRKAWKVLGKV-NH2, the GI50 was 17.5 µM in test [1]; 23.7 µM in test [10]; 19.2 µM in test [3]; 5.75 µM in [4]; 25.8 µM in [5]; 13 µM in test [6]. The figures for the GI50 in test [7] and in [9] were 9.03 µM and 3.21 µM, respectively. Further, the TGI was 63.4 µM in test [1]; over 100 µM in test [10]; 39.5 µM in test [3]; 36.9 µM in test [4]; over 100 µM in test [5]; 43.6 µM in test [6]. For the same compound, the TGI in test [7] was 50.5 µM; in [9], over 100 µM.
For the compound `CCOC(=O)c1c(C)n(Cc2ccccc2)c2c1cc1oc(=O)c(=O)n3cnc2c13`, the GI50 was 17.7 µM in [2]; 8.74 µM in test [10]; 25.6 µM in test [3]; 10.7 µM in test [4]; over 50 µM in test [5]; 14.1 µM in [6]. Further, the GI50 in [7] is 19.8 µM; in [8] it was 11 µM; in [9], 12.9 µM. The concentration for total growth inhibition (TGI) in test [2] is over 50 µM; in test [10] it was 22.3 µM; in [3], over 50 µM; in [4] it was 32.9 µM; in [5], over 50 µM; in test [6], 34.7 µM. Moreover, the TGI in test [7] was over 50 µM; in test [8], 49.8 µM; in [9] it was over 50 µM.
As to `O=C(Nc1nc2ccccc2s1)c1cc(-c2ccc(F)cc2)n2nc(-c3ccccc3)cc2n1`, the GI50 is over 100 µM in [1], 5.29 µM in test [2], 1.86 µM in test [8] and 4.25 µM in test [9]. The TGI in test [1] was over 100 µM; in test [2], over 100 µM; in [8] it was 5.49 µM; in test [9], 15.3 µM.
Consider `COc1ccc2c(c1)/C(=N/OC(C)=O)c1c-2cnc2ccccc12`, for which the GI50 was 39.1 µM in test [1]; 39.7 µM in test [2]; 19 µM in test [10]; 22.2 µM in test [3]; 22.3 µM in test [5]; 67.1 µM in test [6]. In addition, the GI50 in test [7] is 31.7 µM; in test [8], 29.3 µM; in [9], 24.4 µM. The total growth inhibition concentration (TGI) in test [1] was over 100 µM; in [2], over 100 µM; in test [10], 38.6 µM; in [3], 46.6 µM; in test [5], 65.5 µM; in [6] it was over 100 µM. For the same compound, the concentration for total growth inhibition (TGI) in test [7] is 83.6 µM; in test [8], 82 µM; in test [9], 73.1 µM.
With `CC1=C(N2CC2)C(=O)c2ccccc2C1=O`, the TGI amounted to 1.82 µM in test [2]; 4.98 µM in [10]; 10.6 µM in test [3]; 2.84 µM in test [4]; 2.36 µM in [5]; 1.68 µM in test [6]. For the same compound, the TGI turned out to be 7.36 µM in test [7] and 3.5 µM in test [9].
Take `O=C(/C=C/C1C(=O)NC(=O)NC1=O)CC(=O)C(=O)Nc1cc(Cl)c(Cl)cc1Cl`: the TGI in test [1], in test [10], in test [3], in [5], in test [6] and in test [7] was over 100 µM in each case. In addition, the TGI in test [8] and in [9] was over 100 µM each time.
`CCN(CC)Cc1cc(Nc2c3ccccc3nc3cc(Cl)ccc23)ccc1O`: the GI50 in [2] was 0.96 µM; in [3], 1.34 µM; in test [4], 1.65 µM; in [5], 1.12 µM; in test [6], 1.18 µM; in test [7], 1.18 µM. For the same compound, the figures for the GI50 in test [8] and in test [9] were 1.73 µM and 1.69 µM, respectively. The total growth inhibition concentration (TGI) is 2.46 µM in test [2]; 2.64 µM in test [3]; 3.34 µM in test [4]; 2.56 µM in test [5]; 3.63 µM in test [6]; 2.43 µM in test [7]. Also, the results for the concentration for total growth inhibition (TGI) in [8] and in test [9] were 3.29 µM and 39 µM, respectively.
As to `COc1ccc(C(=O)c2cc3c(N)c(C(=O)Nc4cccc(OC)c4)sc3nc2C)cc1`, the GI50 in [1] is 2.2 µM; in test [2], 0.42 µM; in test [10], 0.676 µM; in test [3] it was 1.14 µM; in test [5] it was 1.19 µM; in test [6], 0.446 µM. Further, the GI50 in test [7] is 3.01 µM; in test [8], 0.393 µM; in [9], 0.378 µM. Moreover, the TGI in [1], in test [2], in test [10], in [3], in test [5] and in test [6] was over 100 µM in each case. Further, the TGI in [7] and in test [9] was over 100 µM throughout.
Consider `S=c1c2ccccc2c(=S)n2n1CC=CC2`, for which the concentration for total growth inhibition (TGI) in test [1], in test [10], in [3], in test [5], in [6] and in [7] was over 100 µM each time. Moreover, the TGI in test [8] and in test [9] was over 100 µM in each case.
For the compound `COc1cc2c(cc1OCCCOc1ccc(-c3nc4ccc(N5CCN(C)CC5)cc4[nH]3)cc1)N=C[C@@H]1CCCN1C2=O`, the GI50 in test [2], in [10], in test [4], in test [5], in test [6] and in [7] was under 0.01 µM in each case. For the same compound, the 50% growth inhibitory concentration (GI50) in test [8] and in test [9] was under 0.01 µM in each case. The concentration for total growth inhibition (TGI) in test [2] is 5.12 µM; in test [10] it was 1.58 µM; in [4] it was under 0.01 µM; in [5], under 0.01 µM; in test [6], 15.2 µM; in test [7], 17.2 µM. For the same compound, the TGI is under 0.01 µM in test [8] and 0.818 µM in test [9].
As to `CCc1cc(Cc2ccc(C)c(NC(=O)C(=O)C3C(=O)NC(=O)NC3=O)c2CC)cc(C)c1NC(=O)C(=O)C1C(=O)NC(=O)NC1=O`, the TGI in test [1], in [10], in test [3], in [5], in test [6] and in [7] was over 100 µM throughout. For the same compound, the total growth inhibition concentration (TGI) in test [8] and in test [9] was over 100 µM in each case.
In the case of `Cc1c2ccncc2c(C)c2c1[nH]c1ccc(Cl)cc12`, the GI50 was 2.34 µM in [1]; 4.44 µM in test [3]; 1.04 µM in test [6]; 2.42 µM in test [7]; 1.21 µM in test [9]. Further, the TGI in test [1] is 19.3 µM and 13.9 µM; in test [2], 6.28 µM; in test [10], 6 µM and 2.94 µM; in test [3], 8.15 µM and 16.3 µM; in [5] it was 9.18 µM and 17.1 µM; in test [6] it was 9.35 µM and 2.6 µM. The TGI in [7] is 5.45 µM and 13.4 µM; in [8], 14.7 µM; in [9], 3.67 µM and 3.79 µM.
As for `CN=C(N)N/N=C(\C)c1ccc2c(c1)Cc1ccccc1-2`, the GI50 in [1] is 1.67 µM; in test [3], 1.43 µM; in test [4] it was 1.64 µM; in test [6], 1.43 µM; in [7], 3.98 µM; in test [8], 2.89 µM. For the same compound, the GI50 in test [9] is 1.28 µM. Also, the TGI in test [1] worked out at 3.09 µM; in test [3], 2.89 µM; in test [4], 3.15 µM; in test [6], 3.29 µM; in [7], 19.4 µM; in [8] it was 9.21 µM. Moreover, in test [9], the TGI worked out at 2.69 µM.

The term TGI denotes the concentration giving total growth inhibition. Lower therefore signals more potent growth arrest. Broadly, the GI50 is the concentration giving 50% growth inhibition.
